Reference: US4442031A, “Immunopotentiating peptides” (Hoffmann-La Roche Inc., priority 1983, dated 1984)
Where no end group is shown, it is not given here.

Tests used:
[1] = test system: delayed-type hypersensitivity (DTH); assay: Restoration of delayed-type hypersensitivity (DTH) decreased by 5-FU in BDF1 mice; assay type: in vivo; conditions: i.p.; for DTH response %: % of control
Experimental: A poor prognosis is often observed in cancer patients with impaired immune response. Impaired immune response can be caused by the cancer itself, by chemotherapeutic agents, or by radiotherapy. Thus, therapeutic agents which restore impaired immune response in cancer patients are expected to play an important role in combination therapy. The restoration activity of the compounds of the invention on impaired cell-mediated immunity was determined by measuring the enhancement of delayed-type hypersensitivity (DTH), which was decreased to a great extent in mice treated with 5-fluorouracil (5-FU).
Female BDF1 mice (20-22 g, 11-12 weeks old) received (i.p. or p.o.) the compound to be tested on consecutive days one day before, concurrently with and 1 and 2 days after the 5-FU treatment. For DTH measurement, 10^8 chicken red blood cells (CRBC) were injected i.p. (or s.c. into the left hind footpad) and challenged s.c. into the right hind footpad at 3 and 7 days after the 5-FU treatment, respectively. Restoration activity was calculated by the following formula from the DTH response observed in the control group, 5-FU treated group treatment and the Test group treated both with 5-FU and the compound of the invention. Restoration activity was calculated by the formula: [formula]

[2] = test system: Candida albicans ATCC 10231; assay: Protective activity against Candida albicans infection in 5-FU immunosuppressed mice; assay type: in vivo; conditions: for Survivors Day 8 / Survivors Day 15: ddY mice; for Survivors at Day 8 after infection: Table 6, i.p., ten times with 5-FU, control 1/7
Experimental: In a series of examples, the compounds of formula I were tested for protective activity against opportunistic infections in immunosuppressed mice. Female ddY mice (6 weeks old) weighing about 26 g were pretreated daily for ten days with 5-fluorouracil (5-FU) (25 mg/kg/day, i.p.) and with thymosin α1 or with compounds of formula I (i.p.) at varying dosages. The mice were then infected with Candida albicans ATCC 10231 (1×10^5 cells or more) at 24 hour after the last treatment. One control group was administered 5-FU and saline solution and a second control group received neither 5-FU nor compound of formula I prior to infection with Candida albicans. The number of animals surviving eight days after infection with Candida albicans and 15 days after infection with Candida albicans is presented in the table below.
Normal mice (female ddY mice, 6 weeks old) were highly tolerant to infection with Candida albicans ATCC 10231 at relatively low dose (1-2×10^5 cells, iv.). However, when pretreated daily for ten times with 5-FU (25 mg/kg/day, ip.), the mice were susceptible to infection as shown in Table 6. […] Compound A was also shown to be active against infection with Pseudomonas aeruginosa 5E81-1 and Listeria monocytogenes EGD in the immunosuppressed mice (see Tables 7 and 8).

[3] = Table 3, first experiment, 5-FU plus 0.05 μg/kg/day
[4] = Table 3, first experiment, 5-FU plus 0.5 μg/kg/day
[5] = Table 3, first experiment, 5-FU plus 5.0 μg/kg/day
[6] = Table 3, second experiment, 5-FU plus 0.5 μg/kg/day
[7] = Table 3, second experiment, 5-FU plus 5.0 μg/kg/day
[8] = Table 3, second experiment, 5-FU plus 50.0 μg/kg/day
[9] = Example 8, 4.0 μg/kg i.p. daily for ten days with 5-FU
[10] = Example 8, 40.0 μg/kg i.p. daily for ten days with 5-FU

KSEVVE [Compound B, L-Lysyl-L-seryl-L-glutamyl-L-valyl-L-valyl-L-glutamic acid]
DTH response av. ± S.E. (0.1 mm) ([1]; Table 3, first experiment (control 8.5, 5-FU alone 4.8), 5-FU plus 0.05 μg/kg/day): 7.2 ± 0.8 0.1 mm | DTH response av. ± S.E. (0.1 mm) ([1]; Table 3, first experiment (control 8.5, 5-FU alone 4.8), 5-FU plus 0.5 μg/kg/day): 6.5 ± 0.7 0.1 mm | DTH response av. ± S.E. (0.1 mm) ([1]; Table 3, first experiment (control 8.5, 5-FU alone 4.8), 5-FU plus 5.0 μg/kg/day): 8.5 ± 1.0 0.1 mm | Restoration Activity(%) [1, 3]: 65.0% | DTH response % [1, 3]: 84.7% | Restoration Activity(%) [1, 4]: 48.0% | DTH response % [1, 4]: 77.2% | Restoration Activity(%) [1, 5]: 100% | DTH response % [1, 5]: 100% | DTH response av. ± S.E. (0.1 mm) ([1]; Table 3, second experiment (control 15.1, 5-FU alone 8.1), 5-FU plus 0.5 μg/kg/day): 8.5 ± 0.9 0.1 mm | DTH response av. ± S.E. (0.1 mm) ([1]; Table 3, second experiment (control 15.1, 5-FU alone 8.1), 5-FU plus 5.0 μg/kg/day): 8.3 ± 1.8 0.1 mm | DTH response av. ± S.E. (0.1 mm) ([1]; Table 3, second experiment (control 15.1, 5-FU alone 8.1), 5-FU plus 50.0 μg/kg/day): 9.4 ± 0.8 0.1 mm | Restoration Activity(%) [1, 6]: 6.5% | DTH response % [1, 6]: 56.4% | Restoration Activity(%) [1, 7]: 3.1% | DTH response % [1, 7]: 54.8% | Restoration Activity(%) [1, 8]: 18.3% | DTH response % [1, 8]: 61.9% | DTH restoration activity (in words) ([1]; Tables 2 and 3): active | Survivors Day 8 [2, 9]: 6/7 | Survivors Day 15 [2, 9]: 3/7 | Survivors Day 8 [2, 10]: 3/7 | Survivors Day 15 [2, 10]: 3/7 | Survivors Day 8 ([2]; Example 9, 4.0 μg/kg i.p. daily for ten days with 5-FU): 5/7 | Survivors Day 8 ([2]; Example 9, 40.0 μg/kg i.p. daily for ten days with 5-FU): 5/7 | Survivors at Day 8 after infection ([2]; 4 μg/kg/day): 5/7 | Survivors at Day 8 after infection ([2]; 40 μg/kg/day): 5/7
